Where a name gives a salt, the structure may show the parent alone.
Target: human Factor XIa (Homo sapiens (Human), UniProt P03951)
Assay: Factor XIa enzyme inhibition assay (chromogenic substrate S-2366)
Assay type: biochemical
Settings: purified human Factor XIa 25-200 pM, substrate S-2366, 50 mM HEPES pH 7.4

Sequence of human Factor XIa (P03951 388-625): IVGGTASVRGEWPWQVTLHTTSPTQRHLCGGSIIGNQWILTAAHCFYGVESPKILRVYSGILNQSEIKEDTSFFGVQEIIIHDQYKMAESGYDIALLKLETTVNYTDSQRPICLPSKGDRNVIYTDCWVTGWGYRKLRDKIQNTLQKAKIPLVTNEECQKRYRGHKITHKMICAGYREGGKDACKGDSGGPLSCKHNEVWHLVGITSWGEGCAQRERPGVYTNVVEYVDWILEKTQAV
Sequence of human Factor XIa (P03951 19-387 partner): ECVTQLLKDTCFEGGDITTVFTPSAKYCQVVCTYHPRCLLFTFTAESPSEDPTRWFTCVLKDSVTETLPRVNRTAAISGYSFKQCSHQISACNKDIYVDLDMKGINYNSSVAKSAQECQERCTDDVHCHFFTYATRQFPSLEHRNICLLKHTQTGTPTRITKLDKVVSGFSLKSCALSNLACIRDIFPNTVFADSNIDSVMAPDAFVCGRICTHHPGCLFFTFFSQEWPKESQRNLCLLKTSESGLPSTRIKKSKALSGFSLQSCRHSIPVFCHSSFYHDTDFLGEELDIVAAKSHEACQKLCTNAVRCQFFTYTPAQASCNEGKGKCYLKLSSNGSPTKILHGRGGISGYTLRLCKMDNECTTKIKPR

Structure (SMILES)	Ki [µM]
COC(=O)Nc1ccc2c(c1)NC(=O)[C@H](C)CCC[C@H](NC(=O)c1cn(-c3cccc(C)c3)cn1)c1cc-2ccn1 [Example 18]	0.0987
COC(=O)Nc1ccc2c(c1)NC(=O)CC/C=C/C[C@H](NC(=O)c1c[nH]c(-c3c(F)ccc(Cl)c3F)n1)c1nc-2c[nH]1 [Example 58, Methyl ((12E,15S)-15-(((2-(3-chloro-2,6-difluorophenyl)-1H-imidazol-4-yl)carbonyl)amino)-9-oxo-8,17,19-triazatricyclo[14.2.1.0^2,7]nonadeca-1(18),2,4,6,12,16(19)-hexaen-5-yl)carbamate]	0.935
COC(=O)Nc1ccc2c(c1)NC(=O)[C@H](C)CCC[C@H](NC(=O)c1cncc(-c3cccc(Cl)c3F)c1)c1cc-2ccn1 [Example 75]	0.0365
COC(=O)Nc1ccc2c(c1)NC(=O)CCCC[C@H](NC(=O)c1cn(-c3cccc(Cl)c3)nn1)c1nc-2c[nH]1 [Example 52, Methyl N-[(14S)-14-[1-(3-chlorophenyl)-1H-1,2,3-triazole-4-amido]-9-oxo-8,16,18-triazatricyclo[13.2.1.0^2,7]octadeca-1(17),2,4,6,15(18)-pentaen-5-yl]carbamate]	0.217
COC(=O)Nc1ccc2c(c1)NC(=O)[C@H](C)C(O)CC[C@H](NC(=O)c1cnn(-c3cccc(Cl)c3F)c1C)c1cc-2ccn1 (single isomer, unassigned) [Example 177, TFA salt]	0.0549
COC(=O)Nc1ccc2c(c1)NC(=O)[C@H](C)CCC[C@H](NC(=O)c1cnn(-c3cccc(Cl)c3)c1C)c1nc-2c[nH]1 [Example 41]	0.0128
COC(=O)Nc1ccc2c(c1)C(=O)NC(C)CCC[C@H](NC(=O)c1cnn(-c3cccc(Cl)c3F)c1C)c1cc-2ccn1 (single isomer, unassigned) [Example 221]	0.312
COC(=O)Nc1ccc2c(c1)NC(=O)[C@H](C)CCC[C@H](NC(=O)c1ncn(-c3cccc(Cl)c3F)c1C)c1c[nH]c-2n1 [Example 263]	0.0333
COC(=O)Nc1ccc2c(c1)NC(=O)CCCC[C@H](NC(=O)c1cnn(-c3cccc(Cl)c3F)c1)c1cc-2cnc1F [Example 32, Methyl N-[(14S)-14-[1-(3-chloro-2-fluorophenyl)-1H-pyrazole-4-amido]-16-fluoro-9-oxo-8,17-diazatricyclo[13.3.1.0^2,7]nonadeca-1(19),2(7),3,5,15,17-hexaen-5-yl]carbamate, TFA salt]	0.0114
CCOC(=O)CNc1ccc2c(c1)NC(=O)[C@H](C)CCC[C@H](NC(=O)c1nnn(-c3cccc(Cl)c3F)c1C)c1cc-2ccn1 [Example 156, Ethyl 2-{[(10R,14S)-14-[1-(3-chloro-2-fluorophenyl)-5-methyl-1H-1,2,3-triazole-4-amido]-10-methyl-9-oxo-8,16-diazatricyclo[13.3.1.0^2,7]nonadeca-1(19),2(7),3,5,15,17-hexaen-5-yl]amino}acetate]	0.0168
COC(=O)Nc1ccc2c(c1)NC(=O)[C@H](C)CCC[C@H](NC(=O)c1cnn(-c3cccc(Cl)c3F)c1C)c1cc(OC)nc-2c1 [Example 227]	< 0.005
COC(=O)Nc1ccc2c(c1)NC(=O)[C@H](C)CCC[C@H](NC(=O)c1nnn(-c3cccc(Cl)c3F)c1Cl)c1cc-2ccn1 [Example 15]	< 0.005

Other lines, results leading:

Ki [µM]	Structure (SMILES)
0.0173	Cc1c(C(=O)N[C@H]2CCC[C@@H](C)C(=O)Nc3cc(Nc4ccncn4)ccc3-c3ccnc2c3)nnn1-c1cccc(Cl)c1F [Example 151]
0.00994	Cc1nnc(Nc2ccc3c(c2)NC(=O)[C@H](C)CCC[C@H](NC(=O)c2nnn(-c4cccc(Cl)c4F)c2C)c2cc-3ccn2)o1 [Example 159, 1-(3-Chloro-2-fluorophenyl)-5-methyl-N-[(10R,14S)-10-methyl-5-[(5-methyl-1,3,4-oxadiazol-2-yl)amino]-9-oxo-8,16-diazatricyclo[13.3.1.0^2,7]nonadeca-1(19),2(7),3,5,15,17-hexaen-14-yl]-1H-1,2,3-triazole-4-carboxamide]
< 0.005	CCC1CCC[C@H](NC(=O)c2cn(-c3cccc(Cl)c3F)nn2)c2cc(ccn2)-c2ccc(NC(=O)OC)cc2NC1=O (single isomer, unassigned) [Example 24, TFA salt]
0.00665	Cc1c(C(=O)N[C@H]2CCC[C@@H](C)C(=O)Nc3cc(C(N)=O)ccc3-c3ccnc2c3)cnn1-c1cccc(Cl)c1F [Example 190, (10R,14S)-14-C-1-(3-Chloro-2-fluorophenyl)-5-methyl-1H-pyrazole-4-10-methyl-9-oxo-8,16-diazatricyclo[13.3.1.0^2,7]nonadeca-1(19),2(7),3,5,15,17-hexaene-5,14-diamido, TFA salt]
< 0.005	COC(=O)Nc1ccc2c(c1)NC(=O)[C@H](C)CCC[C@H](NC(=O)c1ncn(-c3cccc(Cl)c3F)c1C)c1cc-2cc(OC)n1 [Example 257]
0.177	CCOC(=O)C1CCCC[C@H](NC(=O)c2cnn(-c3cccc(Cl)c3F)c2)c2cc(ccn2)-c2ccc(NC(=O)OC)cc2N1 (stereo partly drawn) [Example 26, Ethyl (9R,14S)-14-[1-(3-chloro-2-fluorophenyl)-1H-pyrazole-4-amido]-5-[(methoxycarbonyl)amino]-8,16-diazatricyclo[13.3.1.0^2,7]nonadeca-1(19),2(7),3,5,15,17-hexaene-9-carboxylate, 2 TFA salt]
0.0694	COC(=O)Nc1ccc2c(c1)NC(=O)[C@H](C)CCC[C@H](NC(=O)c1cnn(C3CCCNC3)c1)c1cc-2ccn1 (stereo partly shown) [Example 11]
0.547	Cc1c(C(=O)N[C@H]2CCC[C@@H](C)C(=O)Nc3cc(NC(=O)C(F)(F)F)ccc3-c3ccnc2c3)nnn1-c1cccc(Cl)c1F [Example 137, 1-(3-Chloro-2-fluorophenyl)-5-methyl-N-[(10R,14S)-10-methyl-9-oxo-5-(trifluoroacetamido)-8,16-diazatricyclo[13.3.1.0^2,7]nonadeca-1(19),2(7),3,5,15,17-hexaen-14-yl]-1H-1,2,3-triazole-4-carboxamide]
< 0.005	Cc1c(C(=O)N[C@H]2CCC[C@@H](C)C(=O)Nc3cc(N)c(C(=O)O)cc3-c3ccnc2c3)nnn1-c1cccc(Cl)c1F [Example 158, (10R,14S)-5-Amino-14-[1-(3-chloro-2-fluorophenyl)-5-methyl-1H-1,2,3-triazole-4-amido]-10-methyl-9-oxo-8,16-diazatricyclo[13.3.1.0^2,7]nonadeca-1(19),2(7),3,5,15,17-hexaene-4-carboxylic acid]
0.153	COC(=O)Nc1ccc2c(c1)NC(=O)[C@H](C)CCC[C@H](NC(=O)c1nnn(-c3c(F)ccc(Cl)c3F)c1C)c1nc-2c[nH]1 [Example 207]
< 0.005	COC(=O)Nc1ccc2c(c1)NC(=O)[C@H](C)CCC[C@H](NC(=O)c1ncn(-c3cccc(Cl)c3F)c1C)c1cc-2cc(=O)[nH]1 [Example 256]
0.0108	COC(=O)Nc1ccc2c(c1)NC(=O)[C@H](C)CCC[C@H](NC(=O)c1nnn(-c3cccc(Cl)c3F)c1C)c1nc-2c[nH]1 [Example 39]
4.29	COC(=O)Nc1ccc2c(c1)NC(=O)[C@@H](C)CCC[C@@H](NC(=O)c1cnn(-c3cccc(Cl)c3F)c1C)c1cc-2ncc1F [Example 232]
< 0.005	COCCOC(=O)Nc1ccc2c(c1)NC(=O)[C@H](C)CCC[C@H](NC(=O)c1ncn(-c3cccc(Cl)c3F)c1C)c1cc-2ccn1 [Example 251]
< 0.005	COC(=O)Nc1ccc2c(c1)NC(=O)CCCC[C@H](NC(=O)c1cnn(-c3cccc(Cl)c3F)c1C)c1cc-2ccn1 [Example 234]
< 0.005	COC(=O)Nc1ccc2c(c1)NC(=O)[C@H](C)CCC[C@H](NC(=O)c1cnn(-c3cccc(Cl)c3F)c1C)c1cc-2cnn1 [Example 246]

Source: patent publication US10208068B2, “Macrocycles as factor XIa inhibitors” (BRISTOL-MYERS SQUIBB COMPANY, priority 2011, dated 2019)
